pIC50: −log10 of the molar value.
Tests used:
Assay type in all cases: biochemical
[1] = molecular target: T1, ethylbenzene dehydrogenase (EbDH) (Aromatoleum aromaticum, UniProt Q5P5I0); experiment: inhibition of ethylbenzene-dependent activity, dose response; conditions: substrate ethylbenzene; preincubated with inhibitor
[2] = molecular target: T1, ethylbenzene dehydrogenase (EbDH); experiment: ethylbenzene hydroxylation activity assay; conditions: native substrate; Km in text is cited from an earlier paper
[3] = molecular target: T1, ethylbenzene dehydrogenase (EbDH); experiment: inhibition of ethylbenzene-dependent activity; conditions: substrate ethylbenzene

| SMILES | pIC50 [1] | further results |
| --- | --- | --- |
| CCN1BC=CC=C1 [N-ethyl-1,2-azaborine] | 5.55 | – |
| CCB1C=CC=CN1 [B-ethyl-1,2-azaborine] | 4.00 | – |
| CCc1ccccc1 [ethylbenzene] | – | ethylbenzene hydroxylation activity assay [2]: Nonlinear plots of the remaining ethylbenzene-dependent activity of EbDH |
| CCn1ccnc1 [N-ethylimidazole] | – | pIC50 [3]: 2.66 |

— article PMC3748812 (Angewandte Chemie (International ed. in English), 2013)
